{"source": "patent US12617773B2", "about": "“Azetidin-3-ylmethanol derivatives as CCR6 receptor modulators” (Idorsia Pharmaceuticals Ltd, priority 2020, dated 2026)"}
{"target": "T1, human CCR6 (Homo sapiens, UniProt P51684)", "T1 construct": "expressed in transfected cells; host or cells: HEK-293", "T1 sequence (P51684 1-374)": "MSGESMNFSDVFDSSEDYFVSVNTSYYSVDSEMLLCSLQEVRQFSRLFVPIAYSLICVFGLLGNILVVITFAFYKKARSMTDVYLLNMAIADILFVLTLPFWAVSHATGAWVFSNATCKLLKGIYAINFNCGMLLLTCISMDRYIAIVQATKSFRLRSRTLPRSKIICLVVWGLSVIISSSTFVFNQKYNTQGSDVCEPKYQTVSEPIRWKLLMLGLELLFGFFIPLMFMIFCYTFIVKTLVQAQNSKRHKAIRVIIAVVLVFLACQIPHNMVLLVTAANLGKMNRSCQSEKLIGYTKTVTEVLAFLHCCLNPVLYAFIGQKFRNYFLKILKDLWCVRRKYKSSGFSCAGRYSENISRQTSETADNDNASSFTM", "test": "FLIPR assay (inhibition of CCL20-induced calcium signal)", "type": "cell-based", "details": "HEK-293 cells expressing human CCR6; mean values where determined several times; read-out: FLIPR IC50", "outline": "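Dye-loaded HEK-293 cells expressing human CCR6 were preincubated with compound for 30 min at room temperature in the dark, then challenged with 10 nM CCL20 (final). Fluorescence was tracked on FLIPR, and baseline-subtracted peak emission over base after agonist addition gave inhibition dose-response curves for IC50.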", "units": {"IC50": "nM"}}
{"molecule": "CCC(C)(C)c1ccc([C@](O)(c2cncc(-c3noc(C(C)(C)O)n3)c2)C2(C)CN(C)C2)cc1", "note": "[Example 551]", "IC50": 135}
{"molecule": "CC(=O)N1CCC(c2nc(-c3cncc([C@@](O)(c4ccc(C(C)C)c(F)c4)C4(C)CN(C)C4)c3)no2)CC1", "note": "[Example 552]", "IC50": 76.8}
{"molecule": "CC(=O)N1CCC(c2nc(-c3cncc([C@@](O)(c4ccc(C5(C(F)(F)F)CC5)cc4)C4(C)CN(C)C4)c3)no2)CC1", "note": "[Example 553]", "IC50": 62.3}
{"molecule": "CC(=O)N1CCC(c2nc(-c3cncc([C@@](O)(c4ccc(OC(F)(F)F)cc4)C4(C)CN(C)C4)c3)no2)CC1", "note": "[Example 554]", "IC50": 117}
{"molecule": "CC(=O)N1CCC(c2nc(-c3cncc([C@@](O)(c4ccc(OC(C)C)cc4)C4(C)CN(C)C4)c3)no2)CC1", "note": "[Example 555]", "IC50": 986}
{"molecule": "CC(C)c1ccc([C@](O)(c2cncc(-c3noc(C(C)(C)O)n3)c2)C2(C)CN(C)C2)cc1Cl", "note": "[Example 556]", "IC50": 615}
{"molecule": "CN1CC(C)([C@](O)(c2ccc(C3CCC3)cc2)c2cncc(-c3noc(C(C)(C)O)n3)c2)C1", "note": "[Example 557]", "IC50": 46.3}
{"molecule": "CC(=O)N1CCC(c2nc(-c3cncc([C@@](O)(c4ccc(C5CCC5)cc4)C4(C)CN(C)C4)c3)no2)CC1", "note": "[Example 558]", "IC50": 84.5}
{"molecule": "CC(=O)N1CCC(c2nc(-c3cncc([C@@](O)(c4cc(F)c(C(C)C)c(F)c4)C4(C)CN(C)C4)c3)no2)CC1", "note": "[Example 559]", "IC50": 85.6}
{"molecule": "CC(C)c1c(F)cc([C@](O)(c2cncc(-c3noc(C(C)(C)O)n3)c2)C2(C)CN(C)C2)cc1F", "note": "[Example 560]", "IC50": 74.6}
{"molecule": "CC(=O)N1CCC(c2nc(-c3cncc([C@@](O)(c4ccc(OC5CCC5)cc4)C4(C)CN(C)C4)c3)no2)CC1", "note": "[Example 561]", "IC50": 766}
{"molecule": "CCC(CC)c1ccc(C(O)(c2cncc(-c3noc(C(C)(C)O)n3)c2)C2(C)CN(C)C2)cc1", "note": "(stereo not shown) [Example 562]", "IC50": 44.7}
{"molecule": "CCC(CC)c1ccc(C(O)(c2cncc(-c3noc(C4CCN(C(C)=O)CC4)n3)c2)C2(C)CN(C)C2)cc1", "note": "(stereo not shown) [Example 563]", "IC50": 45.2}
{"molecule": "CN1CC(C)(C(O)(c2ccc(CC(C)(C)C)cc2)c2cncc(-c3noc(C(C)(C)O)n3)c2)C1", "note": "(stereo not shown) [Example 564]", "IC50": 91.9}
{"molecule": "CC(=O)N1CCC(c2nc(-c3cncc(C(O)(c4ccc(CC(C)(C)C)cc4)C4(C)CN(C)C4)c3)no2)CC1", "note": "(stereo not shown) [Example 565]", "IC50": 116}
{"molecule": "CC(=O)N1CCC(c2nc(-c3cncc(C(O)(c4ccc(C5(C)CC5)cc4)C4(C)CN(C)C4)c3)no2)CC1", "note": "(stereo not shown) [Example 566]", "IC50": 209}
{"molecule": "CCCc1ccc([C@](O)(c2cncc(-c3noc(C(C)(C)O)n3)c2)C2(C)CN(C)C2)cc1", "note": "[Example 567]", "IC50": 59.1}
{"molecule": "CN1CC(C)([C@](O)(c2ccc(C3CC3)cc2)c2cncc(-c3noc(C(C)(C)O)n3)c2)C1", "note": "[Example 568]", "IC50": 97.6}
{"molecule": "CCc1ccc([C@](O)(c2cncc(-c3noc(C(C)(C)O)n3)c2)C2(C)CN(C)C2)cc1", "note": "[Example 569]", "IC50": 118}
{"molecule": "CCCCc1ccc([C@](O)(c2cncc(-c3noc(C(C)(C)O)n3)c2)C2(C)CN(C)C2)cc1", "note": "[Example 570]", "IC50": 65.8}
{"molecule": "CN1CC(C)([C@](O)(c2ccc(C(F)(F)F)cc2)c2cncc(-c3noc(C(C)(C)O)n3)c2)C1", "note": "[Example 571]", "IC50": 1190}
{"molecule": "CN1CC(C)([C@](O)(c2ccc(CC(F)(F)F)cc2)c2cncc(-c3noc(C(C)(C)O)n3)c2)C1", "note": "[Example 572]", "IC50": 149}
{"molecule": "CC(C)Cc1ccc([C@](O)(c2cncc(-c3noc(C(C)(C)O)n3)c2)C2(C)CN(C)C2)cc1", "note": "[Example 573]", "IC50": 75.9}
{"molecule": "CN1CC(C)([C@](O)(c2ccc(OC3CCC3)cc2)c2cncc(-c3noc(C(C)(C)O)n3)c2)C1", "note": "[Example 574]", "IC50": 1340}
{"molecule": "C=C(C)c1ccc([C@](O)(c2cncc(-c3noc(C(C)(C)O)n3)c2)C2(C)CN(C)C2)cc1", "note": "[Example 575]", "IC50": 103}
{"molecule": "CC(=O)N1CCC(c2nc(-c3cncc([C@@](O)(c4ccc(CC(F)(F)F)cc4)C4(C)CN(C)C4)c3)no2)CC1", "note": "[Example 576]", "IC50": 267}
{"molecule": "CCCc1ccc([C@](O)(c2cncc(-c3noc(C4CCN(C(C)=O)CC4)n3)c2)C2(C)CN(C)C2)cc1", "note": "[Example 577]", "IC50": 66.1}
{"molecule": "CC(=O)N1CCC(c2nc(-c3cncc([C@@](O)(c4ccc(C(C)C)cc4)C4(C)CN(C(C)C)C4)c3)no2)CC1", "note": "[Example 578, 1-[4-(3-{5-[(R)-Hydroxy-(1-isopropyl-3-methyl-azetidin-3-yl)-(4-isopropyl-phenyl)-methyl]-pyridin-3-yl}-[1,2,4]oxadiazol-5-yl)-piperidin-1-yl]-ethanone]", "IC50": 97.2}
{"molecule": "CC(=O)N1CCC(c2nc(-c3cncc([C@@](O)(c4ccc(C(C)C)cc4)C4(C)CN(CC(F)F)C4)c3)no2)CC1", "note": "[Example 579, 1-[4-(3-{5-[(R)-[1-(2,2-Difluoro-ethyl)-3-methyl-azetidin-3-yl]-hydroxy-(4-isopropyl-phenyl)-methyl]-pyridin-3-yl}-[1,2,4]oxadiazol-5-yl)-piperidin-1-yl]-ethanone]", "IC50": 411}
{"molecule": "CC(=O)N1CCC(c2nc(-c3cncc([C@@](O)(c4ccc(C(C)C)cc4)C4(C)CN(CCO)C4)c3)no2)CC1", "note": "[Example 580, 1-[4-(3-{5-[(R)-Hydroxy-[1-(2-hydroxy-ethyl)-3-methyl-azetidin-3-yl]-(4-isopropyl-phenyl)-methyl]-pyridin-3-yl}[1,2,4]oxadiazol-5-yl)-piperidin-1-yl]-ethanone]", "IC50": 294}
{"molecule": "CC(=O)N1CCC(c2nc(-c3cncc([C@@](O)(c4ccc(C(C)C)cc4)C4(C)CN(CC5CC5)C4)c3)no2)CC1", "note": "[Example 581]", "IC50": 113}
{"molecule": "COCCN1CC(C)([C@](O)(c2ccc(C(C)C)cc2)c2cncc(-c3noc(C4CCN(C(C)=O)CC4)n3)c2)C1", "note": "[Example 582]", "IC50": 485}
{"molecule": "CC(=O)N1CCC(c2nc(-c3cncc([C@@](O)(c4ccc(C(C)C)cc4)C4(C)CN(CCC(F)(F)F)C4)c3)no2)CC1", "note": "[Example 583]", "IC50": 239}
{"molecule": "CCCN1CC(C)([C@](O)(c2ccc(C(C)C)cc2)c2cncc(-c3noc(C4CCN(C(C)=O)CC4)n3)c2)C1", "note": "[Example 584]", "IC50": 130}
{"molecule": "CCN1CC(C)([C@](O)(c2ccc(C(C)C)cc2)c2cncc(-c3noc(C4CCN(C(C)=O)CC4)n3)c2)C1", "note": "[Example 585]", "IC50": 116}
{"molecule": "CC(=O)N1CCC(C#Cc2cncc([C@@](O)(c3ccc(C(C)C)cc3)C3(C)CN(C)C3)c2)CC1", "note": "[Example 586]", "IC50": 67}
{"molecule": "CC(C)c1ccc([C@](O)(c2cncc(C#CC(C)(O)C(F)(F)F)c2)C2(C)CN(C)C2)cc1", "note": "(stereo partly shown) [Example 587]", "IC50": 14.8}
{"molecule": "CC(C)c1ccc([C@](O)(c2cncc(C#CC(C)(C)NC(=O)C3CC3)c2)C2(C)CN(C)C2)cc1", "note": "[Example 588]", "IC50": 119}
{"molecule": "CC(C)C(=O)NC(C)(C)C#Cc1cncc([C@@](O)(c2ccc(C(C)C)cc2)C2(C)CN(C)C2)c1", "note": "[Example 589]", "IC50": 154}
{"molecule": "COCC(=O)NC(C)(C)C#Cc1cncc([C@@](O)(c2ccc(C(C)C)cc2)C2(C)CN(C)C2)c1", "note": "[Example 590]", "IC50": 235}
{"molecule": "CC(C)c1ccc([C@](O)(c2cncc(C#CC(C)(C)N3CCOC3=O)c2)C2(C)CN(C)C2)cc1", "note": "[Example 591]", "IC50": 71.6}
{"molecule": "CC(C)c1ccc([C@](O)(c2cncc(C#CC(C)(C)N3CCCC3=O)c2)C2(C)CN(C)C2)cc1", "note": "[Example 592]", "IC50": 44.8}
{"molecule": "CC(C)c1ccc([C@](O)(c2cncc(C#CC(C)(C)N3CCN(C)C3=O)c2)C2(C)CN(C)C2)cc1", "note": "[Example 593]", "IC50": 51.6}
{"molecule": "CC(C)c1ccc([C@](O)(c2cncc(C#CC(C)(C)N3CCNC3=O)c2)C2(C)CN(C)C2)cc1", "note": "[Example 594]", "IC50": 45.4}
{"molecule": "CC(C)c1ccc([C@](O)(c2cncc(C#CC3(N4CCOC4=O)CC3)c2)C2(C)CN(C)C2)cc1", "note": "[Example 595]", "IC50": 93.2}
{"molecule": "CC(=O)N1CCC[C@]1(C)C#Cc1cncc([C@@](O)(c2ccc(C(C)C)cc2)C2(C)CN(C)C2)c1", "note": "[Example 596]", "IC50": 117}
{"molecule": "CC(=O)N1CCC(O)(C#Cc2cncc([C@@](O)(c3ccc(C(C)C)cc3)C3(C)CN(C)C3)c2)CC1", "note": "[Example 597]", "IC50": 395}
{"molecule": "CC(=O)N1CCC(C(C)(O)C#Cc2cncc([C@@](O)(c3ccc(C(C)C)cc3)C3(C)CN(C)C3)c2)CC1", "note": "(stereo partly shown) [Example 598]", "IC50": 94.8}
{"molecule": "CC(=O)N1CCC(C(O)C#Cc2cncc([C@@](O)(c3ccc(C(C)C)cc3)C3(C)CN(C)C3)c2)CC1", "note": "(stereo partly shown) [Example 599]", "IC50": 149}
{"molecule": "CC(=O)N1CCC(CC#Cc2cncc([C@@](O)(c3ccc(C(C)C)cc3)C3(C)CN(C)C3)c2)CC1", "note": "[Example 600]", "IC50": 45.7}
{"molecule": "CC(=O)N1CCC(C)(C(O)C#Cc2cncc([C@@](O)(c3ccc(C(C)C)cc3)C3(C)CN(C)C3)c2)CC1", "note": "(stereo partly shown) [Example 601]", "IC50": 75.5}
{"molecule": "CC(=O)N1CCC(C)(C#Cc2cncc([C@@](O)(c3ccc(C(C)C)cc3)C3(C)CN(C)C3)c2)CC1", "note": "[Example 602]", "IC50": 39.5}
{"molecule": "CC(C)c1ccc([C@](O)(c2cncc(C#CC3CCN(S(C)(=O)=O)CC3)c2)C2(C)CN(C)C2)cc1", "note": "[Example 603]", "IC50": 31.2}
{"molecule": "CNS(=O)(=O)N1CCC(C)(C#Cc2cncc([C@@](O)(c3ccc(C(C)C)cc3)C3(C)CN(C)C3)c2)CC1", "note": "[Example 604]", "IC50": 18.9}
{"molecule": "CC(C)c1ccc([C@](O)(c2cncc(C#CC(C)(C)S(C)(=O)=O)c2)C2(C)CN(C)C2)cc1", "note": "[Example 605]", "IC50": 78.6}
{"molecule": "CC(C)c1ccc([C@](O)(c2cncc(C#CC3(S(=O)(=O)N(C)C)CC3)c2)C2(C)CN(C)C2)cc1", "note": "[Example 606]", "IC50": 22.6}
{"molecule": "CC(C)c1ccc([C@](O)(c2cncc(C#CC3(S(N)(=O)=O)CC3)c2)C2(C)CN(C)C2)cc1", "note": "[Example 607]", "IC50": 104}
{"molecule": "CC(C)c1ccc([C@](O)(c2cncc(C#CC(C)(C)S(=O)(=O)C3CC3)c2)C2(C)CN(C)C2)cc1", "note": "[Example 608]", "IC50": 43.5}
